Target: T1, EED (Homo sapiens, UniProt O75530)
T1 construct: 2×10^5 Hela cells were injected into a 12-well plate; endogenous in cells; host or cells: HeLa
Test: EED Proteolytic Activity Evaluation 2 (western blot, Hela cells)
Format: cell-based
Conditions: 1 nM, 10 nM, 100 nM and 1000 nM, 20 hours of treatment
Description: [Experiment 2] EED Proteolytic Activity Evaluation 2
In order to evaluate the EED proteolytic activity of the compound according to the present invention, an experiment was conducted as follows.
Specifically, 2×10^5 Hela cells were injected into a 12-well plate, and after 8 hours of stabilization, each well was treated with the example compounds to have final concentrations of 1 nM, 10 nM, 100 nM, and 1000 nM. One well was treated with the volume of DMSO contained in the sample corresponding to the highest concentration in the experimental group. After 20 hours of treatment, the cells were collected and lysed using 80 μl of SDS Lysis buffer (50 mM Tris pH8.0, 1% SDS, 1 mM EDTA, 0.5 mM PMSF, and protease inhibitor cocktail) and then sonication (30 sec on/59 sec off), 5 cycles) to prepare a cell lysate, followed by protein quantification through BCA, followed by Western blot, and the results are shown in Table 3. (Maximum EED degradation rate: A: >50%, B: 25-50%, C: <25%)

T1 sequence (O75530 whole entry): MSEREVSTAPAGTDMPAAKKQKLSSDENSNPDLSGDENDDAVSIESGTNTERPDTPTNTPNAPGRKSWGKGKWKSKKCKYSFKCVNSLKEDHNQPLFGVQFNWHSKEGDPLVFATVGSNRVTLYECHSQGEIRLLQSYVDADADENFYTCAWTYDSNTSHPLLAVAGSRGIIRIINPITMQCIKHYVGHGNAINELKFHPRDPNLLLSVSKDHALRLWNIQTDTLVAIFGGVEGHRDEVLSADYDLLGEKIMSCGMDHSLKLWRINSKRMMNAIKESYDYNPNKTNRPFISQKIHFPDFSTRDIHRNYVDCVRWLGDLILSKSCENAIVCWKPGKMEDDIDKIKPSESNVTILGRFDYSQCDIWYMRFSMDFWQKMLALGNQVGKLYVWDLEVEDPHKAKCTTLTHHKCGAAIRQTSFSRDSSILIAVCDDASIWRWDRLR

SMILES | EED degradation rate (Maximum EED degradation rate)
Cc1cccc(F)c1CN1C[C@H](c2ccc(N3CCN(CCC4CCN(c5ccc6c(c5)C(=O)N(C5CCC(=O)NC5=O)C6=O)CC4)CC3)cc2)[C@@H](N(C)C)C1 (stereo partly drawn) [Example 154, 5-(4-(2-(4-(4-((3S,4R)-4-(dimethylamino)-1-(2-fluoro-6-methylbenzyl)pyrrolidin-3-yl)phenyl)piperazin-1-yl)ethyl)piperidin-1-yl)-2-(2,6-dioxopiperidin-3-yl)isoindolin-1,3-dione] | A (A: >50%)
Cc1cccc(F)c1CN1C[C@H](c2ccc(N3CCN(CCC4CCN(C(=O)CNc5cccc6c5C(=O)N(C5CCC(=O)NC5=O)C6=O)CC4)CC3)cc2)[C@@H](N(C)C)C1 (stereo partly drawn) [Example 152, 4-((2-(4-(2-(4-(4-((3S,4R)-4-(dimethylamino)-1-(2-fluoro-6-methylbenzyl)pyrrolidin-3-yl)phenyl)piperazin-1-yl)ethyl)piperidin-1-yl)-2-oxoethyl)amino)-2-(2,6-dioxopiperidin-3-yl)isoindolin-1,3-dione] | A (A: >50%)

— patent publication US20220105188A1, “TARGET PROTEIN EED DEGRADATION-INDUCING DEGRADUCER, PREPARATION METHOD THEREOF, AND PHARMACEUTICAL COMPOSITION FOR PREVENTING OR TREATING DISEASES RELATED TO EED, EZH2, OR PRC2, COMPRISING SAME AS ACTIVE INGREDIENT” (KOREA RESEARCH INSTITUTE OF CHEMICAL TECHNOLOGY, priority 2019, published 2022)
